Laboratory results: ChEMBL document CHEMBL4371024, “Synthesis and characterization of pyridoxine, nicotine and nicotinamide salts of dithiophosphoric acids as antibacterial agents against resistant wound infection” (Bioorg Med Chem, 2019)
Active and inactive are the calls of the source. The calls are words filed in the database; no cut-off is given here.

What was measured:
Staphylococcus aureus [1] = assay: Antibacterial activity against Staphylococcus aureus ATCC 29213 after 24 hrs by broth dilution method; assay type: functional; settings: ATCC 29213, 24 h
Pseudomonas aeruginosa [2] = assay: Antibacterial activity against Pseudomonas aeruginosa ATCC 27853 after 24 hrs by broth dilution method; assay type: functional; settings: ATCC 27853, 24 h
[3] = test system: Staphylococcus epidermidis; assay: Antibacterial activity against Staphylococcus epidermidis after 24 hrs by broth dilution method; assay type: functional
Klebsiella pneumoniae [4] = assay: Antibacterial activity against Klebsiella pneumoniae after 24 hrs by broth dilution method; assay type: functional
Staphylococcus aureus [5] = assay: Inhibition of extracellular component secretion and matrix formation in Staphylococcus aureus assessed as induction of bacterial aggregation at 1 uM by scanning electron microscopy; assay type: functional, organism-based
Pseudomonas aeruginosa [6] = assay: Inhibition of extracellular component secretion and matrix formation in Pseudomonas aeruginosa assessed as induction of bacterial aggregation at 1 uM by scanning electron microscopy; assay type: functional, organism-based
Staphylococcus aureus [7] = assay: Inhibition of extracellular component secretion and matrix formation in Staphylococcus aureus assessed as uncovering of bacterial cells at 1 uM by scanning electron microscopy; assay type: functional, organism-based
Pseudomonas aeruginosa [8] = assay: Inhibition of extracellular component secretion and matrix formation in Pseudomonas aeruginosa assessed as uncovering bacterial cells at 1 uM by scanning electron microscopy; assay type: functional, organism-based
Pseudomonas aeruginosa [9] = assay: Bactericidal activity against Pseudomonas aeruginosa ATCC 27853 incubated for 24 hrs followed by replating on Mueller-Hinton agar and further incubated for 24 hrs; assay type: functional; settings: ATCC 27853, 24 h
Klebsiella pneumoniae [10] = assay: Bactericidal activity against Klebsiella pneumoniae incubated for 24 hrs followed by replating on Mueller-Hinton agar and further incubated for 24 hrs; assay type: functional
Staphylococcus aureus [11] = assay: Bactericidal activity against Staphylococcus aureus ATCC 29213 incubated for 24 hrs followed by replating on Mueller-Hinton agar and further incubated for 24 hrs; assay type: functional; settings: ATCC 29213, 24 h
Staphylococcus aureus [12] = assay: Antibacterial activity against methicillin, cefoxytin, levfloxacin-resistant and erythromycin, clindamycin-senstitive Staphylococcus aureus after 24 hrs by broth dilution method; assay type: functional
Staphylococcus aureus [13] = assay: Antibacterial activity against methicillin, cefoxytin-resistant and levofloxacin, erythromycin, clindamycin-senstitive Staphylococcus aureus after 24 hrs by broth dilution method; assay type: functional
Staphylococcus aureus [14] = assay: Antibacterial activity against multidrug-resistant Staphylococcus aureus after 24 hrs by broth dilution method; assay type: functional
Pseudomonas aeruginosa [15] = assay: Antibacterial activity against multidrug-resistant Pseudomonas aeruginosa after 24 hrs by broth dilution method; assay type: functional
Pseudomonas aeruginosa [16] = assay: Antibacterial activity against ciprofloxacin, imipenem, meronem-resistant and cefepime, piperacillin-tazobactam-sensitive Pseudomonas aeruginosa after 24 hrs by broth dilution method; assay type: functional
Pseudomonas aeruginosa [17] = assay: Antibacterial activity against ciprofloxacin-resistant and multidrug-sensitive Pseudomonas aeruginosa after 24 hrs by broth dilution method; assay type: functional
Pseudomonas aeruginosa [18] = assay: Antibacterial activity against multidrug-sensitive Pseudomonas aeruginosa after 24 hrs by broth dilution method; assay type: functional
Klebsiella pneumoniae [19] = assay: Antibacterial activity against multidrug-sensitive Klebsiella pneumoniae after 24 hrs by broth dilution method; assay type: functional
Enterobacter cloacae = assay: Antibacterial activity against multidrug-resistant and sensitive Enterobacter cloacae after 24 hrs by broth dilution method; assay type: functional
Escherichia coli = assay: Antibacterial activity against multidrug-resistant and sensitive Escherichia coli after 24 hrs by broth dilution method; assay type: functional
[20] = Cytotoxicity against human HSF cells after 72 hrs by MTT assay; assay type: cell-based
[21] = Cytotoxicity against human HSF cells after 24 hrs by MTT assay; assay type: cell-based
Erythrocyte = assay: Hemolytic activity in human erythrocytes at >100 uM; assay type: ADME, cell-based
[22] = Aggregation property of the compound in DMEM culture medium at 1 mM after 1 hr by dynamic light scattering method; assay type: physicochemical; settings: 1000 µM
Staphylococcus aureus [23] = assay: Drug interaction with Staphylococcus aureus cellular surface assessed as decrease in zeta potential at 1 mM treated for 1 hr followed by washing and measured by dynamic light scattering method; assay type: functional
Pseudomonas aeruginosa [24] = assay: Drug interaction with Pseudomonas aeruginosa cellular surface assessed as decrease in zeta potential at 1 mM treated for 1 hr followed by washing and measured by dynamic light scattering method; assay type: functional
Klebsiella pneumoniae [25] = assay: Ratio of MBC to MIC against Klebsiella pneumoniae; assay type: functional
Pseudomonas aeruginosa [26] = assay: Ratio of MBC to MIC against Pseudomonas aeruginosa ATCC 27853; assay type: functional
Staphylococcus aureus [27] = assay: Ratio of MBC to MIC against Staphylococcus aureus ATCC 29213; assay type: functional
[28] = Aggregation property of the compound assessed as mean hydrodynamic diameter at 1 mM after 1 hr by dynamic light scattering method; assay type: physicochemical; settings: 1000 µM
Staphylococcus aureus [29] = assay: Inhibition of extracellular component secretion and matrix formation in Staphylococcus aureus assessed as induction of morphological changes at 1 uM by scanning electron microscopy; assay type: functional, organism-based
Staphylococcus aureus [30] = assay: Inhibition of extracellular component secretion and matrix formation in Staphylococcus aureus assessed as inhibition of polysaccharide matrix formation at 1 uM by scanning electron microscopy; assay type: functional, organism-based
Pseudomonas aeruginosa [31] = assay: Inhibition of extracellular component secretion and matrix formation in Pseudomonas aeruginosa assessed as induction of morphological changes at 1 uM by scanning electron microscopy; assay type: functional, organism-based
Pseudomonas aeruginosa [32] = assay: Inhibition of extracellular component secretion and matrix formation in Pseudomonas aeruginosa assessed as inhibition of polysaccharide matrix formation at 1 uM by scanning electron microscopy; assay type: functional, organism-based

CN1CCC[C@H]1c1cccnc1.C[C@@H]1[C@@H](OP(=S)(S)O[C@H]2C[C@H]3C[C@@H]([C@@H]2C)C3(C)C)C[C@H]2C[C@@H]1C2(C)C
MIC (Staphylococcus aureus [1]): 20 µM | MIC (Pseudomonas aeruginosa [2]): 320 µM | MIC [3]: 20 µM | MIC (Klebsiella pneumoniae [4]): 320 µM

CC(C)[C@@H]1CC[C@@H](C)C[C@H]1OP(=S)(S)O[C@@H]1C[C@H](C)CC[C@H]1C(C)C.Cc1ncc(CO)c(CO)c1O
Activity (Staphylococcus aureus [5]): Active | Activity (Pseudomonas aeruginosa [6]): Active | Activity (Staphylococcus aureus [7]): Active | Activity (Pseudomonas aeruginosa [8]): Active

CC1(C)[C@H]2CC[C@](C)(C2)[C@H]1OP(=S)(S)O[C@H]1C(C)(C)[C@H]2CC[C@]1(C)C2.Cc1ncc(CO)c(CO)c1O
MIC (Staphylococcus aureus [1]): 20 µM | MIC (Pseudomonas aeruginosa [2]): 320 µM | MIC [3]: 20 µM | MIC (Klebsiella pneumoniae [4]): 320 µM

CCCCOP(=S)(S)OCCCC.NC(=O)c1cccnc1
MIC (Staphylococcus aureus [1]): 4130 µM | MIC (Pseudomonas aeruginosa [2]): 4130 µM | MIC [3]: 4130 µM | MIC (Klebsiella pneumoniae [4]): 4130 µM

CN1CCC[C@H]1c1cccnc1.Cc1ccc(C(C)C)c(OP(=S)(S)Oc2cc(C)ccc2C(C)C)c1
MIC (Staphylococcus aureus [1]): 320 µM | MIC (Pseudomonas aeruginosa [2]): 320 µM | MIC [3]: 320 µM | MIC (Klebsiella pneumoniae [4]): 2530 µM

CC(C)[C@@H]1CC[C@@H](C)C[C@H]1OP(=S)(S)O[C@@H]1C[C@H](C)CC[C@H]1C(C)C.CN1CCC[C@H]1c1cccnc1 [listing 1 of 2 here]
MIC (Staphylococcus aureus [1]): 20 µM | MIC (Pseudomonas aeruginosa [2]): 320 µM | MIC [3]: 20 µM | MIC (Klebsiella pneumoniae [4]): 320 µM | MBC (Pseudomonas aeruginosa [9]): 320 µM | MBC (Klebsiella pneumoniae [10]): 640 µM | MBC (Staphylococcus aureus [11]): 20 µM | MIC (Staphylococcus aureus [12]): 11 µM | MIC (Staphylococcus aureus [13]): 11 µM | MIC (Staphylococcus aureus [14]): 23 µM | MIC (Pseudomonas aeruginosa [15]): 360 µM | MIC (Pseudomonas aeruginosa [16]): 360 µM | MIC (Pseudomonas aeruginosa [17]): 360 µM | MIC (Pseudomonas aeruginosa [18]): 360 µM | MIC (Klebsiella pneumoniae [19]): 360 µM | MIC (Enterobacter cloacae): 360 µM | MIC (Escherichia coli): 360 µM | IC50 [20]: 57.6 µM | IC50 [21]: 81.3 µM | Activity (Erythrocyte): Toxic | Activity [22]: Active | fold change (FC) (Staphylococcus aureus [23]): 1.2 | fold change (FC) (Pseudomonas aeruginosa [24]): 1.2 | Ratio (Klebsiella pneumoniae [25]): 1 | Ratio (Pseudomonas aeruginosa [26]): 1 | Ratio (Staphylococcus aureus [27]): 1 | Activity [28]: 141.7 nm

Cc1ccc(C(C)C)c(OP(=S)(S)Oc2cc(C)ccc2C(C)C)c1.Cc1ncc(CO)c(CO)c1O
MIC (Staphylococcus aureus [1]): 530 µM | MIC (Pseudomonas aeruginosa [2]): 530 µM | MIC [3]: 530 µM | MIC (Klebsiella pneumoniae [4]): 530 µM

C[C@@H]1[C@@H](OP(=S)(S)O[C@H]2C[C@H]3C[C@@H]([C@@H]2C)C3(C)C)C[C@H]2C[C@@H]1C2(C)C.Cc1ncc(CO)c(CO)c1O
MIC (Staphylococcus aureus [1]): 20 µM | MIC (Pseudomonas aeruginosa [2]): 320 µM | MIC [3]: 20 µM | MIC (Klebsiella pneumoniae [4]): 320 µM

CC1(C)[C@H]2CC[C@]1(C)[C@H](OP(=S)(S)O[C@@H]1C[C@@H]3CC[C@@]1(C)C3(C)C)C2.CN1CCC[C@H]1c1cccnc1
MIC (Staphylococcus aureus [1]): 20 µM | MIC (Pseudomonas aeruginosa [2]): 320 µM | MIC [3]: 20 µM | MIC (Klebsiella pneumoniae [4]): 320 µM

CC(C)[C@@H]1CC[C@@H](C)C[C@H]1OP(=S)(S)O[C@@H]1C[C@H](C)CC[C@H]1C(C)C.CN1CCC[C@H]1c1cccnc1 [listing 2 of 2 here]
Activity (Staphylococcus aureus [29]): Active | Activity (Staphylococcus aureus [30]): Active | Activity (Pseudomonas aeruginosa [31]): Active | Activity (Pseudomonas aeruginosa [32]): Active

CCCCOP(=S)(S)OCCCC.CN1CCC[C@H]1c1cccnc1
MIC (Staphylococcus aureus [1]): 1810 µM | MIC (Pseudomonas aeruginosa [2]): 3630 µM | MIC [3]: 1810 µM | MIC (Klebsiella pneumoniae [4]): 3630 µM
